The results in this text go back to US20240408081A1, “NOVEL SYNERGISTIC COMBINATIONS AND METHODS OF USE THEREOF FOR TREATING CANCERS” (UNIVERSITE DE BORDEAUX, priority 2021, published 2024).

What all share (assay type): cell-based, human
The test system of assay [1] is Huh6 and HepG2 cells. The experiment in a line: Clonogenicity assay. Conditions: GSK-126 3 and 4 μM for Huh6 and HepG2; ATR 8 μM; SIM 4 μM; 10 days. As for the experimental part: Huh6 and HepG2 cells were seeded at 500 and 1000 cells/well respectively in 12-well plates. After attachment, cells were treated with drugs.
Following incubation at 37° C. for 10 days, the cells were fixed with 4% PFA and stained with 0.05% crystal violet. Reading under the Fusion FX (Vilber Lourmat).

Assay [2] concerns H3K27me3 trimethylation. The experiment in a line: Western blot of H3K27me3 in DMG cells. As for the experimental part:
Histone extraction was performed according to manufacturer's instructions (Histone Extraction Kit-ab113476, Abcam, Paris, France).
(§1) Cell lysates were prepared by scraping cells using RIPA buffer (Sigma Aldrich) plus proteinase inhibitors (Sigma Aldrich) and centrifuged at 13000 g for 15 min at 4° C. Protein concentrations were measured using Pierce™ BCATM Protein Assays (ThermoFisher) and equal amounts of cell extracts were loaded for western blot analysis in 4-15% precasted polyacrylamide gel (Bio-Rad). Proteins were blotted on a nitrocellulose membrane (Transblot® Turbo midi-size, Bio Rad), blocked with the Odyssey blocking buffer (LI-COR Biosciences, ScienceTec, Les Ulis, France) or with BSA diluted in Tris-buffered saline with 0.1% Tween 20 (TBST) and probed with primary antibodies overnight at 4° C. […] Quantification was performed using ImageJ (National Institutes of Health, Bethesda, Maryland, USA).
For orientation: Immunoblotting shows a protein as a band on a membrane.

Assay [3] has as its system BXdmg1 primary cells. The assay can be described thus: Proliferation assay in primary DMG cells BXdmg1. As for the experimental part:
Cell growth was measured with the In vitro Toxicology Assay kit (Sulforhodamine B, Sigma Aldrich, Saint Quentin Fallavier, France) according to manufacturer's instructions. Cells were plated at a density of 2000 cells per well in 96-well plates in triplicates. Absorbance was measured at 565 nm using the CLARIOstar multiplate reader (BMG Labtech, Champigny-sur-Marne, France) at indicated time points.
A DMG biopsy was received in the laboratory and dissociated using GentleMACs cell separator (Miltenyi Biotech, Paris, France) within 24h using MACSBrain Tumor Dissociation Kit (Miltenyi Biotech, Paris, France) and the standard GentleMACs brain tissue separation program. Cells yielded were cultivated in Amniomax C100SUP plus Amniomax C100 basal medium (Gibco, ThermoFisher, Illkirch Cedex, France). Molecular and cellular analysis of the biopsy were detailed in FIG. 7 (see Rahal, F., C. Capdevielle, B. Rousseau, J. Izotte, J. W. Dupuy, D. Cappellen, G. Chotard, M. Menard, J. Charpentier, V. Jecko, C. Caumont, E. Gimbert, C. F. Grosset and M. Hagedorn (2022). “An EZH2 blocker sensitizes histone mutated diffuse midline glioma to cholesterol metabolism inhibitors through an off-target effect.” Neurooncol Adv 4 (1): vdac018).

In assay [4] the test system is HMGCS, HMGCR, LDLR, NPC1 and SQLE. The experiment in a line: RT-qPCR and Western blot of lipid and cholesterol synthesis genes in DIPG cells. Conditions: GSK-126 at IC50 of each cell line. As to the method: as §1
Total RNA was isolated from cell lines with the TRI Reagent (Sigma) following manufacturer's instructions. For quantification of messenger RNA (mRNA) expression, total RNA was retrotranscribed using the Maxima Reverse Transcriptase (Thermo Scientific). […]
For orientation: Quantitative PCR measures a nucleic acid by following its amplification.

Where two headings read alike, the source gives them in different places.

With `CC[C@H](C)n1cc(C)c2c(C(=O)NCc3c(C)cc(C)[nH]c3=O)cc(-c3ccc(N4CCNCC4)nc3)cc21` [GSK-126, 1-[(2S)-butan-2-yl]-N-[(4,6-dimethyl-2-oxo-1H-pyridin-3-yl)methyl]-3-methyl-6-[6-(1-piperazinyl)-3-pyridinyl]-4-indolecarboxamide], the “proliferation and survival of hepatoblastoma cells (clonogenic cell assay)” value in assay [1] was “little effect”. For the same compound, the H3K27me3 trimethylation result in assay [2] (BXdmg1 cells, histone-purified protein extracts) is reported as “reduced H3K27me3 trimethylation in a dose-dependent manner”; in assay [2] (NEM157i and SU-DIPG-IVi DMG cells), “efficiently inhibited”. Moreover, the IC50 (usually the midpoint of a concentration-inhibition curve) in assay [3] is 10.4 µM; in assay [3] (Homo sapiens), roughly 10 µM. Moreover, the “expression of HMGCS, HMGCR, LDLR, NPC1 and SQLE genes, and HMGCR and SQLE proteins” value in assay [4] is given as “induced”.
